Strand notation (5' to 3'): a small letter for the sugar, then the base; units joined by * are phosphorothioate-linked, units joined directly phosphodiester-linked; [ ] holds rarer units or linkages, { } end groups; capitals alone tell only the bases. e = 2'-O-(2-methoxyethyl) (MOE); [5mC] = 5-methylcytosine; d = 2'-deoxy (DNA)

Usually % inhibition stands for the change of the read-out against control, counted positive when it falls.

This data set has as its system human Factor 11 mRNA. In words: Antisense inhibition of human Factor 11 in HepG2 cells by microwalk gapmers, lipofectin, 75 nM (Example 3). It counts as cell-based. In a few lines: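 HepG2 cells (10,000/well) were transfected via lipofectin with 75 nM 20-mer MOE gapmers (phosphorothioate, 5-methyl-C) for about 24 h. Factor 11 mRNA was measured by qRT-PCR, normalized to RIBOGREEN total RNA, and given as percent inhibition versus untreated cells.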

The mark [1] stands for this setting: HepG2, lipofectin, ~24 h, gapmers targeted to nucleobases 656 to 704 of SEQ ID NO: 1.
Where [2] appears, read: HepG2 cells, lipofectin, gapmers targeted to nucleobases 738 to 762 of SEQ ID NO: 1.
Where [3] appears, read: HepG2 cells, lipofectin, gapmers targeted to nucleobases 1018 to 1042 of SEQ ID NO: 1.
The mark [4] stands for this setting: HepG2 cells, lipofectin, gapmers targeted to nucleobases 1062 to 1091 of SEQ ID NO: 1.
Setting [5] is: HepG2 cells, lipofectin, gapmers targeted to nucleobases 1275 to 1318 of SEQ ID NO: 1.

With “416963 (antisense e[5mC]*eA*dT*dG*dT*d[5mC]*dT*dA*dG*dG*dT*d[5mC]*d[5mC]*dA*d[5mC]*eA*eT*eA*eA*eA) [compound 416963]”, the “% inhibition” value under setting [1] was 48%.
For the substance “416964 (antisense eT*e[5mC]*dA*dT*dG*dT*d[5mC]*dT*dA*dG*dG*dT*d[5mC]*d[5mC]*dA*e[5mC]*eA*eT*eA*eA) [compound 416964]”, under setting [1], the “% inhibition” value was 69%.
On the same count and under the same terms, in the case of “416965 (antisense eT*eT*d[5mC]*dA*dT*dG*dT*d[5mC]*dT*dA*dG*dG*dT*d[5mC]*d[5mC]*eA*e[5mC]*eA*eT*eA) [compound 416965]” it was 53%; in that of “416966 (antisense e[5mC]*eT*dT*d[5mC]*dA*dT*dG*dT*d[5mC]*dT*dA*dG*dG*dT*d[5mC]*e[5mC]*eA*e[5mC]*eA*eT) [compound 416966]”, 64%; in that of “416967 (antisense e[5mC]*e[5mC]*dT*dT*d[5mC]*dA*dT*dG*dT*d[5mC]*dT*dA*dG*dG*dT*e[5mC]*e[5mC]*eA*e[5mC]*eA) [compound 416967]”, 75%.
On the same count and under the same terms, for “416968 (antisense e[5mC]*e[5mC]*d[5mC]*dT*dT*d[5mC]*dA*dT*dG*dT*d[5mC]*dT*dA*dG*dG*eT*e[5mC]*e[5mC]*eA*e[5mC]) [compound 416968]” the value was 73%; for “416970 (antisense eT*eG*d[5mC]*d[5mC]*d[5mC]*dT*dT*d[5mC]*dA*dT*dG*dT*d[5mC]*dT*dA*eG*eG*eT*e[5mC]*e[5mC]) [compound 416970]”, 88%.
Same read-out and setting: in the case of “416971 (antisense eA*eT*dG*d[5mC]*d[5mC]*d[5mC]*dT*dT*d[5mC]*dA*dT*dG*dT*d[5mC]*dT*eA*eG*eG*eT*e[5mC]) [compound 416971]” it was 83%; in that of “416974 (antisense eT*eT*dT*dA*dT*dG*d[5mC]*d[5mC]*d[5mC]*dT*dT*d[5mC]*dA*dT*dG*eT*e[5mC]*eT*eA*eG) [compound 416974]”, 73%.
Take “416975 (antisense e[5mC]*e[5mC]*dG*dT*dG*d[5mC]*dA*dT*d[5mC]*dT*dT*dT*d[5mC]*dT*dT*eG*eG*e[5mC]*eA*eT) [compound 416975]”: the “% inhibition” value under setting [2] was 87%.
On the same count and under the same terms, in the case of “416976 (antisense eT*e[5mC]*d[5mC]*dG*dT*dG*d[5mC]*dA*dT*d[5mC]*dT*dT*dT*d[5mC]*dT*eT*eG*eG*e[5mC]*eA) [compound 416976]” it was 83%; in that of “416977 (antisense eA*eT*d[5mC]*d[5mC]*dG*dT*dG*d[5mC]*dA*dT*d[5mC]*dT*dT*dT*d[5mC]*eT*eT*eG*eG*e[5mC]) [compound 416977]”, 82%.
Still for that read-out and setting: in the case of “416978 (antisense e[5mC]*eA*dT*d[5mC]*d[5mC]*dG*dT*dG*d[5mC]*dA*dT*d[5mC]*dT*dT*dT*e[5mC]*eT*eT*eG*eG) [compound 416978]” it was 76%; in that of “416979 (antisense eT*e[5mC]*dA*dT*d[5mC]*d[5mC]*dG*dT*dG*d[5mC]*dA*dT*d[5mC]*dT*dT*eT*e[5mC]*eT*eT*eG) [compound 416979]”, 63%; in that of “416980 (antisense eG*eT*d[5mC]*dA*dT*d[5mC]*d[5mC]*dG*dT*dG*d[5mC]*dA*dT*d[5mC]*dT*eT*eT*e[5mC]*eT*eT) [compound 416980]”, 87%.
Regarding “416981 (antisense e[5mC]*e[5mC]*dG*dG*dG*dA*dT*dG*dA*dT*dG*dA*dG*dT*dG*e[5mC]*eA*eG*eA*eT) [compound 416981]”, the “% inhibition” value under setting [3] worked out at 87%.
Same read-out and setting: in the case of “416982 (antisense eA*e[5mC]*d[5mC]*dG*dG*dG*dA*dT*dG*dA*dT*dG*dA*dG*dT*eG*e[5mC]*eA*eG*eA) [compound 416982]” it was 84%; in that of “416983 (antisense eA*eA*d[5mC]*d[5mC]*dG*dG*dG*dA*dT*dG*dA*dT*dG*dA*dG*eT*eG*e[5mC]*eA*eG) [compound 416983]”, 86%.
For the substance “416986 (antisense eA*eT*dT*d[5mC]*dT*dT*dT*dG*dG*dG*d[5mC]*d[5mC]*dA*dT*dT*e[5mC]*e[5mC]*eT*eG*eG) [compound 416986]”, the “% inhibition” value under setting [4] was 88%.
“416987 (antisense eG*eA*dT*dT*d[5mC]*dT*dT*dT*dG*dG*dG*d[5mC]*d[5mC]*dA*dT*eT*e[5mC]*e[5mC]*eT*eG) [compound 416987]”: under setting [4], the “% inhibition” value amounted to 80%.
Same read-out and setting: in the case of “416988 (antisense eA*eG*dA*dT*dT*d[5mC]*dT*dT*dT*dG*dG*dG*d[5mC]*d[5mC]*dA*eT*eT*e[5mC]*e[5mC]*eT) [compound 416988]” it was 76%; in that of “416990 (antisense eT*eG*dA*dG*dA*dT*dT*d[5mC]*dT*dT*dT*dG*dG*dG*d[5mC]*e[5mC]*eA*eT*eT*e[5mC]) [compound 416990]”, 76%; in that of “416991 (antisense eT*eT*dG*dA*dG*dA*dT*dT*d[5mC]*dT*dT*dT*dG*dG*dG*e[5mC]*e[5mC]*eA*eT*eT) [compound 416991]”, 87%.
Still for that read-out and setting: in the case of “416992 (antisense eT*eT*dT*dG*dA*dG*dA*dT*dT*d[5mC]*dT*dT*dT*dG*dG*eG*e[5mC]*e[5mC]*eA*eT) [compound 416992]” it was 84%.
On the same count and under the same terms, for “416994 (antisense eT*e[5mC]*dT*dT*dT*dG*dA*dG*dA*dT*dT*d[5mC]*dT*dT*dT*eG*eG*eG*e[5mC]*e[5mC]) [compound 416994]” the value was 83%; for “416995 (antisense eT*eT*d[5mC]*dT*dT*dT*dG*dA*dG*dA*dT*dT*d[5mC]*dT*dT*eT*eG*eG*eG*e[5mC]) [compound 416995]”, 64%; for “416996 (antisense eT*eT*dT*d[5mC]*dT*dT*dT*dG*dA*dG*dA*dT*dT*d[5mC]*dT*eT*eT*eG*eG*eG) [compound 416996]”, 22%.
“416997 (antisense eA*e[5mC]*dA*dG*dT*dT*dT*d[5mC]*dT*dG*dG*d[5mC]*dA*dG*dG*e[5mC]*e[5mC]*eT*e[5mC]*eG) [compound 416997]”: the “% inhibition” value under setting [5] came to 84%.
Same read-out and setting: in the case of “416998 (antisense e[5mC]*eA*d[5mC]*dA*dG*dT*dT*dT*d[5mC]*dT*dG*dG*d[5mC]*dA*dG*eG*e[5mC]*e[5mC]*eT*e[5mC]) [compound 416998]” it was 88%.
Still for that read-out and setting: in the case of “417001 (antisense eG*eT*dG*d[5mC]*dA*d[5mC]*dA*dG*dT*dT*dT*d[5mC]*dT*dG*dG*e[5mC]*eA*eG*eG*e[5mC]) [compound 417001]” it was 83%; in that of “417004 (antisense eT*eT*dG*dG*dT*dG*d[5mC]*dA*d[5mC]*dA*dG*dT*dT*dT*d[5mC]*eT*eG*eG*e[5mC]*eA) [compound 417004]”, 86%; in that of “417005 (antisense eA*eT*dT*dG*dG*dT*dG*d[5mC]*dA*d[5mC]*dA*dG*dT*dT*dT*e[5mC]*eT*eG*eG*e[5mC]) [compound 417005]”, 79%.
Still for that read-out and setting: for “417006 (antisense e[5mC]*eA*dT*dT*dG*dG*dT*dG*d[5mC]*dA*d[5mC]*dA*dG*dT*dT*eT*e[5mC]*eT*eG*eG) [compound 417006]” the value was 81%.
As for “417007 (antisense eG*e[5mC]*dA*dT*dT*dG*dG*dT*dG*d[5mC]*dA*d[5mC]*dA*dG*dT*eT*eT*e[5mC]*eT*eG) [compound 417007]”, the “% inhibition” value under setting [5] stood at 82%.
For “417008 (antisense eG*eG*d[5mC]*dA*dT*dT*dG*dG*dT*dG*d[5mC]*dA*d[5mC]*dA*dG*eT*eT*eT*e[5mC]*eT) [compound 417008]”, under setting [5], the “% inhibition” value turned out to be 82%.
Same read-out and setting: for “417009 (antisense e[5mC]*eG*dG*d[5mC]*dA*dT*dT*dG*dG*dT*dG*d[5mC]*dA*d[5mC]*dA*eG*eT*eT*eT*e[5mC]) [compound 417009]” the value was 85%; for “417010 (antisense eA*e[5mC]*dG*dG*d[5mC]*dA*dT*dT*dG*dG*dT*dG*d[5mC]*dA*d[5mC]*eA*eG*eT*eT*eT) [compound 417010]”, 81%.
With “417011 (antisense eG*eA*d[5mC]*dG*dG*d[5mC]*dA*dT*dT*dG*dG*dT*dG*d[5mC]*dA*e[5mC]*eA*eG*eT*eT) [compound 417011]”, the “% inhibition” value under setting [5] amounted to 86%.
With “417012 (antisense eG*eG*dA*d[5mC]*dG*dG*d[5mC]*dA*dT*dT*dG*dG*dT*dG*d[5mC]*eA*e[5mC]*eA*eG*eT) [compound 417012]”, under setting [5], the “% inhibition” value is given as 72%.
In the case of “417013 (antisense e[5mC]*eG*dG*dA*d[5mC]*dG*dG*d[5mC]*dA*dT*dT*dG*dG*dT*dG*e[5mC]*eA*e[5mC]*eA*eG) [compound 417013]”, the “% inhibition” value under setting [5] came to 86%.
For “417014 (antisense eG*e[5mC]*dG*dG*dA*d[5mC]*dG*dG*d[5mC]*dA*dT*dT*dG*dG*dT*eG*e[5mC]*eA*e[5mC]*eA) [compound 417014]”, the “% inhibition” value under setting [5] is 87%.
On the same count and under the same terms, in the case of “417015 (antisense eA*eG*d[5mC]*dG*dG*dA*d[5mC]*dG*dG*d[5mC]*dA*dT*dT*dG*dG*eT*eG*e[5mC]*eA*e[5mC]) [compound 417015]” it was 87%; in that of “417016 (antisense e[5mC]*eA*dG*d[5mC]*dG*dG*dA*d[5mC]*dG*dG*d[5mC]*dA*dT*dT*dG*eG*eT*eG*e[5mC]*eA) [compound 417016]”, 85%; in that of “417017 (antisense eG*e[5mC]*dA*dG*d[5mC]*dG*dG*dA*d[5mC]*dG*dG*d[5mC]*dA*dT*dT*eG*eG*eT*eG*e[5mC]) [compound 417017]”, 82%.

Source of the values: patent US20230263822A1, “MODULATION OF FACTOR 11 EXPRESSION” (Ionis Pharmaceuticals, Inc., priority 2008, published 2023).
